{"source": "patent US10342804B2", "about": "“Steroid compound for use in the treatment of hepatic encephalopathy” (Umecrine Cognition AB, priority 2014, dated 2019)", "format_in_all_cases": "in vivo, rat", "key": {"[1]": {"test": "Concentrations in plasma and brain tissue after exogenous administration, LC-MS (Example 5)", "settings": "for Unbound brain concentration: 1-2 h after last treatment, seven weeks daily 20 mg/kg s.c.", "excerpt": "The study was divided into two series with animals (male Wistar rats), each series included the following groups; Controls treated with vehicle (CV, n=8 per series), Controls treated with 3α-ethynyl-3β-hydroxyandrostan-17-one oxime (C+GAM, n=8 per series), hyperammonemic rats treated with vehicle (HAV, n=8 per series), hyperammonemic rats treated with 3α-ethynyl-3β-hydroxyandrostan-17-one oxime (HA+GAM, n=8 per series). The once daily treatment with 3α-ethynyl-3β-hydroxyandrostan-17-one oxime at 20 mg/kg or with vehicle was performed with subcutaneous injections of 1 ml/kg around 9 a.m. Treatment started one week after starting with the ammonium containing diet and continued for the whole experimental period.\nBlood was obtained from the tail of the rats (from Example 2) in the end of second week of ammonia treatment and first week of 3α-ethynyl-3β-hydroxyandrostan-17-one oxime treatment and also from the neck during the animal sacrifice. To obtain the plasma it was added EDTA […] and centrifuged at 1500 r.p.m during 5 minutes.\nRats were sacrificed by decapitation. One half of the brain including the cerebellum was collected and conserved at −80° C. for determination of 3α-ethynyl-3β-hydroxyandrostan-17-one oxime. Different brain areas (cerebellum, cortex, hippocampus and striatum) were dissected and conserved at −80° C. for possible determination of GAMS.\nCollected brain and plasma samples were analyzed for 3α-ethynyl-3β-hydroxyandrostan-17-one oxime concentrations. Plasma and brain samples were thawed at room temperature. Plasma was protein-precipitated with a 3-fold volume with acetonitrile and brain tissue was homogenized with a 1:4 ratio of tissue:PBS (pH 7.4) and then extracted with a 2-fold volume of methanol:acetonitrile (1:1) for 20 min during sonication. Thereafter samples were shaken and centrifuged for 10 min at 10 000×g (Heraeus Pico 17 centrifuge).\nThe supernatant was then diluted with an equal volume of PBS and analyzed. Some samples were reanalyzed as 10-fold dilutions due to too high concentration of 3α-ethynyl-3β-hydroxyandrostan-17-one oxime. […]"}, "hyperammonemic rats [2]": {"test_system": "hyperammonemic rats", "test": "Spatial memory in the Morris water maze, chronic hyperammonemia model (Example 3)", "settings": "20 mg/kg s.c. once daily, 4th-5th week of treatment", "excerpt": "In this study an animal model of chronic hyperammonemia was used that reproduces many of the cognitive and motor alterations present in hepatic encephalopathy. Rats were fed with ammonia in their food and after two weeks with ammonia enriched food they developed symptoms of hepatic encephalopathy. The beam walking test was made during the 3rd and 4th week of 3α-ethynyl-3β-hydroxyandrostan-17-one oxime treatment while the Morris Water maze test was made during 4th-5th week of 3α-ethynyl-3β-hydroxyandrostan-17-one oxime treatment and the Radial maze test was made during 6th-7th week of 3α-ethynyl-3β-hydroxyandrostan-17-one oxime treatment. […]\nThe test was carried out as follows; the first day was the pre-training day, rats were put in the water two times for 30 s only to adapt to water. […] The time, speed and path needed to find the hidden platform was recorded by a video tracking system provided by Viewpoint Company (Viewpoint 2.5, Champagne au Mont D′ Or, France) and used as a measure of learning of the task. After 15 training trial, the platform was removed from the pool, the rats were allowed to swim for 90 s in the pool and the time spent in the quadrant where the platform was positioned during training was recorded."}, "hyperammonemic rats [3]": {"test_system": "hyperammonemic rats", "test": "Morris water maze memory test, hyperammonemic rats (Example 9)", "experimental": "(§1) Male Wistar rats (140-160 g) were made hyperammonemic by feeding them a diet containing ammonium acetate (30% by weight) (Felipo et al, European Journal of Biochemistry, 1988, 176, 567-571).\n(§2) 3α-ethynyl-3β-hydroxyandrostan-17-one oxime in sesame oil was administered by subcutaneous injections in the back of the rats, once daily. Two different sets of experiments were performed in hyperammonemic rats. In the first set four groups of rats were used: 1) control rats injected with vehicle; 2) hyperammonemic rats injected with vehicle; 3) control rats injected with 20 mg/Kg of 3α-ethynyl-3β-hydroxyandrostan-17-one oxime and 4) hyperammonemic rats injected with 20 mg/Kg of 3α-ethynyl-3β-hydroxyandrostan-17-one oxime.\n(§3) In the second set of experiments five groups of rats were used: 1) control rats injected with vehicle; 2) hyperammonemiac rats injected with vehicle and 3-5) hyperammonemic rats injected with 3, 10 or 20 mg/Kg of 3α-ethynyl-3β-hydroxyandrostan-17-one oxime. In each experiment 6-8 rats per group were used.\nThe test was carried out as described by Monfort et al. (European Journal of Neuroscience, 2007, 25, 2103-2111) using a circular pool (160 cm diameter, 40 cm height) arbitrarily divided into four quadrants. After pre-training, the rats were trained to learn the fixed location of the invisible platform over 3 days. Training involved placing the rat into the pool facing the wall in one of the three quadrants lacking the platform. A different starting point was randomly used on each trial. Training consisted of three swims per day. Each animal was allowed a maximum of 120 seconds to find the platform and was left for 20 seconds on the platform. […] The time needed to find the hidden platform was recorded manually and used as a measure of learning of the task.\nSpatial memory was assessed 24 hours later by removing the platform and measuring the time spent by the rat in the quadrant where the platform was."}, "hyperammonemic rats [4]": {"test_system": "hyperammonemic rats", "test": "Radial maze test, hyperammonemic rats (Example 10)", "experimental": "as §1, §2, §3\nThe apparatus was composed of a central area that gave access to eight equally-sized arms. The arms were 70 cm long and 10 cm wide and the central area was 30 cm in diameter. […] Rats were allowed to explore the maze for 10 minutes on two consecutive days in the presence of distal cues to adapt to the maze. Training in the radial maze was composed of three trials per day on six consecutive days. The task involved locating four pellets, each placed at the end of a different arm according to a random configuration as described by Hernandez-Rabaza et al. (Addiction Biology, 2010, 15, 413-423). The number of working memory errors (visits to arms already visited in the same trial) were recorded and expressed as working errors."}}}
{"smiles": "C#C[C@]1(O)CC[C@@]2(C)C(CC[C@@H]3[C@@H]2CC[C@]2(C)/C(=N\\O)CC[C@@H]32)C1", "note": "(stereo partly drawn) [3α-ethynyl-3β-hydroxyandrostan-17-one oxime]", "values": [{"measurement": "Unbound brain concentration", "setting": "[1]; HA rats", "result": "106 ± 15.4", "unit": "nmol/kg"}, {"measurement": "Unbound brain concentration", "setting": "[1]; control rats", "result": "91 ± 4.1", "unit": "nmol/kg"}, {"measurement": "Total concentration in plasma, 23 hours vs 4 hours after injection", "setting": "[1]; treatment day five, 20 mg/kg s.c., control and hyperammonemic rats", "result": "lower 23 hours after injection than 4 hours after injection"}, {"measurement": "Spatial memory in the Morris water maze (time to find the platform)", "setting": "hyperammonemic rats [2]", "result": "completely restored spatial memory"}, {"measurement": "Percentage of time spent in the correct quadrant, Morris water maze memory test", "setting": "hyperammonemic rats [3]; 3 mg/kg", "result": "41±4", "unit": "%"}, {"measurement": "Percentage of time spent in the correct quadrant, Morris water maze memory test", "setting": "hyperammonemic rats [3]; 10 mg/kg", "result": "42±5", "unit": "%"}, {"measurement": "Percentage of time spent in the correct quadrant, Morris water maze memory test", "setting": "hyperammonemic rats [3]; 20 mg/kg", "result": "38±3", "unit": "%"}, {"measurement": "Number of working errors in days 1-2, radial maze", "setting": "hyperammonemic rats [4]; 3 mg/kg", "result": "6.5±2.8", "unit": "errors"}, {"measurement": "Number of working errors in days 1-2, radial maze", "setting": "hyperammonemic rats [4]; 10 mg/kg", "result": "8.8±1.9", "unit": "errors"}, {"measurement": "Number of working errors in days 1-2, radial maze", "setting": "hyperammonemic rats [4]; 20 mg/kg", "result": "12±2", "unit": "errors"}]}
